According to patent US20030125569A1, “Use of packing strip as a holographic data carrier” (priority 2002, published 2003):

Key:
[1] = Estimated water content of crystalline forms after exposure to an atmosphere of defined relative humidity; assay type: physicochemical; settings: (3R,5S)-enantiomer; form obtained from Form E by exposure to defined relative humidity (A: 0 to 20%; B1/B2: 20 to 55%; C: 75%; D: 90%); monosodium salt
Description: The preparation of crystalline polymorphic Forms A, B1, B2, C and D is usually carried out by using Form E as the starting compound and by exposing Form E to an atmosphere having a defined relative humidity. Depending on the relative humidity used the different forms can be obtained.
Form E of Fluvastatin sodium ((3R,5S)-enantiomer) is first exposed to an atmosphere having a relative humidity of 90% for about 4 hours and subsequently to an atmosphere of 0 to 20% for about 90 minutes. This treatment leads to Form A of the (3R,5S)-enantiomer with an estimated water content of 0 to 5%. The above treatment can be carried out in an X-ray diffractometer in which the relative humidity of the atmosphere can be controlled during the measurement. X-ray powder diffraction studies show the product to be polymorphic Form A (see FIG. 1).
Form E of Fluvastatin sodium ((3R,5S)-enantiomer) is first exposed to an atmosphere having a relative humidity of 90% for about 4 hours and subsequently to an atmosphere of 20 to 55% for about 3 hours. This treatment leads to either Form B1 or Form B2 of the (3R,5S)-enantiomer with an estimated water content of 5 to 15%. The above treatment can be carried out in an X-ray diffractometer in which the relative humidity of the atmosphere can be controlled during the measurement. […]

[2] = molecular target: T1, 3-hydroxy-3-methylglutaryl coenzyme A (HMG-CoA) (Homo sapiens, UniProt P04035); settings: O. Tempkin et al., Tetrahedron 1997, vol. 53, pages 10659-10670; cited from earlier work
T1 sequence (P04035 1-888): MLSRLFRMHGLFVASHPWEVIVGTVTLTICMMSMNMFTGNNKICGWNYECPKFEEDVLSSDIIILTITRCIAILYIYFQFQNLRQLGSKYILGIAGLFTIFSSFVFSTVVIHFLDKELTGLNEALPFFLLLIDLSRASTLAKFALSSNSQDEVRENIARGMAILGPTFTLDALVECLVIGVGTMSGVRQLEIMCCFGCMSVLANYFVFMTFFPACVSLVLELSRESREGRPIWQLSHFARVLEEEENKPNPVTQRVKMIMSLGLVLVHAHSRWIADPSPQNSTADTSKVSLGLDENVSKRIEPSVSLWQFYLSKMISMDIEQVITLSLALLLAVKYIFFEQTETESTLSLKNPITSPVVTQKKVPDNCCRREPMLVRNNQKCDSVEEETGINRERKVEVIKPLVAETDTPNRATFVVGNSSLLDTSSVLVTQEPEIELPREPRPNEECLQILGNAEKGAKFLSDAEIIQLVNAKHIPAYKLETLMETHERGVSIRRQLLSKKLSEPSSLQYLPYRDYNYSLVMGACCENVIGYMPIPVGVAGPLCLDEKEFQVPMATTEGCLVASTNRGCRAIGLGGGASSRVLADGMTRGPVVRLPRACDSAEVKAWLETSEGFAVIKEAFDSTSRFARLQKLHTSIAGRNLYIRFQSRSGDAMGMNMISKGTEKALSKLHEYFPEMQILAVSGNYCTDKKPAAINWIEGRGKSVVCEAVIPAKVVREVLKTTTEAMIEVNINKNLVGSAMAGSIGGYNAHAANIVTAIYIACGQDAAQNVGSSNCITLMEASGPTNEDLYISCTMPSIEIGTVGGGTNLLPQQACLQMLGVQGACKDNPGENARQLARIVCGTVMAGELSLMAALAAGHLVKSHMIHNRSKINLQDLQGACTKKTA

Row | estimated water content [1] [%] | SMILES | biological potency among enantiomers [2]
1 | 30 | CC(C)n1c(/C=C/[C@@H](O)C[C@@H](O)CC(=O)[O-])c(-c2ccc(F)cc2)c2ccccc21.[Na+] (single isomer, unassigned) [Form D, (3R,5S)- or (3S,5R)-7-(3-(4-fluorophenyl)-1-(1-methylethyl)-1H-indol-2-yl)-3,5-dihydroxy-6-heptenoic acid monosodium salt] | 
2 |  | CC(C)n1c(/C=C/[C@@H](O)C[C@@H](O)CC(=O)[O-])c(-c2ccc(F)cc2)c2ccccc21.[Na+] (single isomer, unassigned; enantiomer 7) [(3R,5S)-enantiomer, 7-(3-(4-fluorophenyl)-1-(1-methylethyl)-1H-indol-2-yl)-3,5-dihydroxy-6-heptenoic acid monosodium salt] | biologically most potent enantiomer
